Assays:
Assay type in all cases: biochemical, Brevibacterium sterolicum ATCC 21387
cholesterol oxidase I [1] = target: T1, cholesterol oxidase I (Brevibacterium sterolicum, UniProt P22637); assay: Substrate specificity of cholesterol oxidase I (relative activity on sterol substrates); conditions: cholesterol = 100
Procedure: (§1) The amount of enzyme which catalyzes the reaction of decomposing 1 μmole of cholesterol at 37° C. for one minute in the presence of oxygen is defined as one unit. The titer is determined as follows. While shaking, the enzyme acts on cholesterol and 4-aminoantipyrine and phenol are reacted with the formed hydrogen peroxide in the presence of peroxidase to form quinonimine pigment. Absorption of the thus formed quinonimine pigment in the visible region is measured to determine the amount of hydrogen peroxide generated. Thus, the titer of the enzyme is determined. Hereafter specific activity is defined as activity per 1 mg of protein (unit/mg).
(§2) The enzyme activity is determined by reacting hydrogen peroxide generated by the enzyme with 4-aminoantipyrine and phenol in the presence of peroxidase and quantitatively determining the formed quinonimine pigment. The reaction is shown by the following equations (1) and (2). [drawing 3]
(§3) The mixture is agitated. After maintaining at 37° C. for 3 minutes, 0.2 ml of an enzyme solution is added to the mixture. While shaking, the reaction is carried out at 37° C. for 5 to 10 minutes. Then, absorbance is measured at 500 nm (OD 500 nm)

cholesterol oxidase II [2] = assay: Substrate specificity of cholesterol oxidase II (relative activity on sterol substrates); conditions: for Relative Activity (%) of cholesterol oxidase II on substrate: cholesterol = 100; for Substrate specificity (acts / does not act on): cholesterol oxidase II
Procedure: as §1, §2, §3

cholesterol oxidase II [3] = assay: Influence of inhibitor on cholesterol oxidase II activity; conditions: for Inhibition of the enzyme (in words): cholesterol oxidase II; for Relative Activity (%) of cholesterol oxidase II in the presence of inhibitor: inhibitor 1 mM, activity in the absence of inhibitor = 100
Procedure: (§4) Relative activity is shown in Table 2, in the presence of an inhibitor at a concentration of 1 mM, when in the absence of the inhibitor, the activities of cholesterol oxidases I and II are regarded as 100.
as §1, with “(unit/mg). Furthermore, an amount of enzyme protein is determined by absorbance at 280 nm (1 mg/ml when absorbance is 1).” for “(unit/mg).”
In a test tube, there are charged 1.0 ml of 3 mM cholesterol solution (which is prepared by adding 6 ml of 50 mM cholesterol ethanol solution to 94 ml of 1.05% Triton X-100 solution with stirring, heating the mixture for 10 minutes on a water bath, cooling the mixture in water, adding distilled water to the mixture until the total volume is 100 ml; and is not allowed to be used 30 minutes or longer after preparation) , 0.3 ml of 50 mM sodium bilate solution, 0.3 ml of 0.5 mM potassium-sodium phosphate buffer (pH 6.6), 0.5 ml of 42 mM phenol, 0.5 ml of 2.4 mM 4-aminoantipyrine and 0.2 ml of 115 units/ml horseradish-derived peroxidase. The mixture is agitated. After maintaining at 37° C. for 3 minutes, 0.2 ml of an enzyme solution is added to the mixture. While shaking, the reaction is carried out at 37° C. for 5 to 10 minutes. Then, absorbance is measured at 500 nm (OD 500 nm)

cholesterol oxidase I [4] = target: T1, cholesterol oxidase I; assay: Influence of inhibitor on cholesterol oxidase I activity; conditions: inhibitor 1 mM; activity in the absence of inhibitor = 100
Procedure: as §4
as §1, with “(unit/mg). Furthermore, an amount of enzyme protein is determined by absorbance at 280 nm (1 mg/ml when absorbance is 1). […]” for “(unit/mg).”

T1 sequence (P22637 46-552): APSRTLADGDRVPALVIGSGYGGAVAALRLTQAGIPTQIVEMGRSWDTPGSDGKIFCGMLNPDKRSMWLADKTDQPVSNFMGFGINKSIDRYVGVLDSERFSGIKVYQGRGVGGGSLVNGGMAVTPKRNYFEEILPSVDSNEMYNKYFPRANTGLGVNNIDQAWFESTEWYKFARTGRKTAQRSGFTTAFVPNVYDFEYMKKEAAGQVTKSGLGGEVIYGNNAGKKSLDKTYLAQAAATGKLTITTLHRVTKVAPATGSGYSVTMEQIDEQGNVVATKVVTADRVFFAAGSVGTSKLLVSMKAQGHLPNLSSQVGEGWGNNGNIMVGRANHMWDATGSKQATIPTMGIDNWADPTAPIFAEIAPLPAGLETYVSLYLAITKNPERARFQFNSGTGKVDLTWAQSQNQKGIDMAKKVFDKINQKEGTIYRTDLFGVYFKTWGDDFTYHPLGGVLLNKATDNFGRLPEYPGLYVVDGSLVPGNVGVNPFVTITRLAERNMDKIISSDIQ

## CC(=O)[C@H]1CC[C@H]2[C@@H]3CC=C4C[C@@H](O)CC[C@]4(C)[C@H]3CC[C@]12C [Pregnenolone]
Cholesterol oxidase I [1]
  Relative Activity (%) of cholesterol oxidase I on substrate: 22.4%
Cholesterol oxidase II [2]
  Relative Activity (%) of cholesterol oxidase II on substrate: 32.9%

## Oc1cccc2cccnc12 [o-Hydroxyquinoline]
Cholesterol oxidase II [3]
  Inhibition of the enzyme (in words): inhibited
  Relative Activity (%) of cholesterol oxidase II in the presence of inhibitor: 91.3%

## CC(C)=CCC[C@@H](C)[C@H]1CC[C@@]2(C)C3=C(CC[C@]12C)[C@@]1(C)CC[C@H](O)C(C)(C)[C@@H]1CC3 [Lanosterol]
Cholesterol oxidase I [1]
  Relative Activity (%) of cholesterol oxidase I on substrate: 0%
Cholesterol oxidase II [2]
  Relative Activity (%) of cholesterol oxidase II on substrate: 0%
  Substrate specificity (acts / does not act on): does not act on

## C[C@]12CC[C@@H]3c4ccc(O)cc4CC[C@H]3[C@@H]1CC[C@@H]2O [Estradiol]
Cholesterol oxidase I [1]
  Relative Activity (%) of cholesterol oxidase I on substrate: 0%

## CC[C@H](/C=C/[C@@H](C)[C@H]1CC[C@H]2[C@@H]3CC=C4C[C@@H](O)CC[C@]4(C)[C@H]3CC[C@]12C)C(C)C [Stigmasterol]
Cholesterol oxidase I [1]
  Relative Activity (%) of cholesterol oxidase I on substrate: 10.0%
Cholesterol oxidase II [2]
  Relative Activity (%) of cholesterol oxidase II on substrate: 64.4%

## CC[C@H](CC[C@@H](C)[C@H]1CC[C@H]2[C@@H]3CC=C4C[C@@H](O)CC[C@]4(C)[C@H]3CC[C@]12C)C(C)C [β-Sitosterol]
Cholesterol oxidase I [1]
  Relative Activity (%) of cholesterol oxidase I on substrate: 19.7%
Cholesterol oxidase II [2]
  Relative Activity (%) of cholesterol oxidase II on substrate: 82.0%

## C[C@]12CC[C@@H](O)C[C@@H]1CC[C@@H]1[C@@H]2CC[C@]2(C)C(=O)CC[C@@H]12 [Androsterone]
Cholesterol oxidase I [1]
  Relative Activity (%) of cholesterol oxidase I on substrate: 0%
Cholesterol oxidase II [2]
  Relative Activity (%) of cholesterol oxidase II on substrate: 0%
  Substrate specificity (acts / does not act on): does not act on

## CC(C)CCC[C@@H](C)[C@H]1CC[C@H]2[C@@H]3CC=C4C[C@@H](O)CC[C@]4(C)[C@H]3CC[C@]12C [Cholesterol, 5-cholesten-3-β-ol]
Cholesterol oxidase I [1]
  Relative Activity (%) of cholesterol oxidase I on substrate: 100%
Cholesterol oxidase II [2]
  Relative Activity (%) of cholesterol oxidase II on substrate: 100%

## C[C@]12CC[C@H](O)CC1=CC[C@@H]1[C@@H]2CC[C@]2(C)C(=O)CC[C@@H]12 [Dehydroisoandrosterone]
Cholesterol oxidase I [1]
  Relative Activity (%) of cholesterol oxidase I on substrate: 41.4%
Cholesterol oxidase II [2]
  Relative Activity (%) of cholesterol oxidase II on substrate: 13.0%

## O=S(=O)(O)c1cc[c]([Hg][Cl])cc1 [p-Chloromercury benzenesulfonate]
Cholesterol oxidase I [4]
  Relative Activity (%) of cholesterol oxidase I in the presence of inhibitor: 80.0%
Cholesterol oxidase II [3]
  Inhibition of the enzyme (in words): inhibited
  Relative Activity (%) of cholesterol oxidase II in the presence of inhibitor: 87.0%

## O=[N+]([O-])[O-].[Ag+] [AgNO3, silver nitrate]
Cholesterol oxidase I [4]
  Relative Activity (%) of cholesterol oxidase I in the presence of inhibitor: 0%
Cholesterol oxidase II [3]
  Inhibition of the enzyme (in words): inhibited
  Relative Activity (%) of cholesterol oxidase II in the presence of inhibitor: 1.0%

## CCCCC/C=C\C/C=C\CCCCCCCC(=O)O[C@H]1CC[C@@]2(C)C(=CC[C@H]3[C@@H]4CC[C@H]([C@H](C)CCCC(C)C)[C@@]4(C)CC[C@@H]32)C1 [Cholesterol linoleate]
Cholesterol oxidase I [1]
  Relative Activity (%) of cholesterol oxidase I on substrate: 0%
Cholesterol oxidase II [2]
  Relative Activity (%) of cholesterol oxidase II on substrate: 0%
  Substrate specificity (acts / does not act on): does not act on

## C=C1CC[C@H](O)C/C1=C/C=C1\CCC[C@]2(C)[C@@H]([C@H](C)CCCC(C)C)CC[C@@H]12 [Vitamin D3]
Cholesterol oxidase I [1]
  Relative Activity (%) of cholesterol oxidase I on substrate: 0%
Cholesterol oxidase II [2]
  Relative Activity (%) of cholesterol oxidase II on substrate: 0%
  Substrate specificity (acts / does not act on): does not act on
